Where “and” joins values, the source holds several entries; their conditions need not be identical. Identical values can stand only once. Like-named read-outs stand apart in the source and are kept apart here.
What was measured:
Assay in all cases: SelectScreen kinase assay
TEK (Tie2) = TEK (Tie2) (Homo sapiens, UniProt Q02763)
Method: (§1) Selectivity profiling assays were performed by the Invitrogen SelectScreen™ Services. […] The concentration of ATP was selected to be equal to the KM, unless indicated otherwise.

FGFR2 = FGFR2 (Homo sapiens, UniProt P21802); conditions: for Inhibition at 1 µM (%): FGFR2, ZLYTE, ATP Km app
Method: as §1

PTK2 (FAK) = PTK2 (FAK) (Homo sapiens, UniProt Q05397)
Method: as §1

NEK9 = NEK9 (Homo sapiens, UniProt Q8TD19)
Method: as §1

LTK (TYK1) = LTK (TYK1) (Homo sapiens, UniProt P29376)
Method: as §1

KDR (VEGFR2) [1] = biological target: KDR (VEGFR2) (Homo sapiens, UniProt P35968)
Method: as §1

KDR (VEGFR2) [2] = conditions: IC50 on that kinase divided by IC50 on FES^S700C
Method: as §1

AKT1 (PKB alpha) = AKT1 (PKB alpha) (Homo sapiens, UniProt P31749); conditions: for Inhibition at 1 µM (%): AKT1 (PKB alpha), ZLYTE, ATP Km app
Method: as §1

MAP4K3 (GLK) = biological target: T1, MAP4K3 (GLK) (Homo sapiens, UniProt Q8IVH8)
T1 sequence (Q8IVH8 1-894): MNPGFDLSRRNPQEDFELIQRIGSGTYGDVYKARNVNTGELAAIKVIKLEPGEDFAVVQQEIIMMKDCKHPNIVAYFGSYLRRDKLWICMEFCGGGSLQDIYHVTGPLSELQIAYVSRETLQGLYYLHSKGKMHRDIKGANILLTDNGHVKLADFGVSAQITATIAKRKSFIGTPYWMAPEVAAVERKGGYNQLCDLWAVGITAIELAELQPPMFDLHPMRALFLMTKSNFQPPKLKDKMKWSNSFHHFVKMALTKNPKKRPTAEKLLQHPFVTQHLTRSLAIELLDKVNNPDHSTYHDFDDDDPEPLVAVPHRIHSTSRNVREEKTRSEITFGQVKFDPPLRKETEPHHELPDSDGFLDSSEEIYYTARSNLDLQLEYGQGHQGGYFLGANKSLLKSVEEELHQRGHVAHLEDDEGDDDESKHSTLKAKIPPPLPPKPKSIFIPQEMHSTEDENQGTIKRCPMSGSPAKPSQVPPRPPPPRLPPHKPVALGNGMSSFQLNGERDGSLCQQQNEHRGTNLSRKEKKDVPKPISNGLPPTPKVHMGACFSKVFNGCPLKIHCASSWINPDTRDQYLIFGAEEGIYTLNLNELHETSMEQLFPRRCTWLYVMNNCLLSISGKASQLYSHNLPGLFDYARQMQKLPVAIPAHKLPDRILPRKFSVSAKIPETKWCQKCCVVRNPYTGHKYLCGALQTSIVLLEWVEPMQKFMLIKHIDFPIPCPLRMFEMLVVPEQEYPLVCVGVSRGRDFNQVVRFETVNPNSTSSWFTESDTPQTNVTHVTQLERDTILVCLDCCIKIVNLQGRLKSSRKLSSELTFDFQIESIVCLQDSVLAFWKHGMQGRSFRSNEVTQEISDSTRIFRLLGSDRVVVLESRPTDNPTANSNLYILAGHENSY
Method: as §1

PIM1 = PIM1 (Homo sapiens, UniProt P11309); conditions: for Inhibition at 1 µM (%): PIM1, ZLYTE, ATP Km app
Method: as §1

CSNK2A2 (CK2 alpha 2) = CSNK2A2 (CK2 alpha 2) (Homo sapiens, UniProt P19784)
Method: as §1

PAK6 = PAK6 (Homo sapiens, UniProt Q9NQU5); conditions: 1 h, 1 μM WEL028, 1 h preincubation
Method: as §1

IKBKE (IKK epsilon) = IKBKE (IKK epsilon) (Homo sapiens, UniProt Q14164); conditions: 1 h, 1 μM WEL028, 1 h preincubation
Method: as §1

STK22D (TSSK1) = STK22D (TSSK1) (Homo sapiens, UniProt Q9BXA7); conditions: 1 h, 1 μM WEL028, 1 h preincubation
Method: as §1

[3] = 1 µM, ZLYTE, ATP Km app, listed as WEL028, 1 µM
[4] = 1 h, 1 μM WEL028, 1 h preincubation
[5] = 1 h, log[inhibitor] (M) -5.00, ZLYTE, ATP Km app
[6] = 1 h, log[inhibitor] (M) -5.48, ZLYTE, ATP Km app
[7] = 1 h, log[inhibitor] (M) -5.95, ZLYTE, ATP Km app
[8] = 1 h, log[inhibitor] (M) -6.43, ZLYTE, ATP Km app
[9] = 1 h, log[inhibitor] (M) -6.91, ZLYTE, ATP Km app
[10] = 1 h, log[inhibitor] (M) -8.82, ZLYTE, ATP Km app

Chain of FGFR2 (P21802 22-821): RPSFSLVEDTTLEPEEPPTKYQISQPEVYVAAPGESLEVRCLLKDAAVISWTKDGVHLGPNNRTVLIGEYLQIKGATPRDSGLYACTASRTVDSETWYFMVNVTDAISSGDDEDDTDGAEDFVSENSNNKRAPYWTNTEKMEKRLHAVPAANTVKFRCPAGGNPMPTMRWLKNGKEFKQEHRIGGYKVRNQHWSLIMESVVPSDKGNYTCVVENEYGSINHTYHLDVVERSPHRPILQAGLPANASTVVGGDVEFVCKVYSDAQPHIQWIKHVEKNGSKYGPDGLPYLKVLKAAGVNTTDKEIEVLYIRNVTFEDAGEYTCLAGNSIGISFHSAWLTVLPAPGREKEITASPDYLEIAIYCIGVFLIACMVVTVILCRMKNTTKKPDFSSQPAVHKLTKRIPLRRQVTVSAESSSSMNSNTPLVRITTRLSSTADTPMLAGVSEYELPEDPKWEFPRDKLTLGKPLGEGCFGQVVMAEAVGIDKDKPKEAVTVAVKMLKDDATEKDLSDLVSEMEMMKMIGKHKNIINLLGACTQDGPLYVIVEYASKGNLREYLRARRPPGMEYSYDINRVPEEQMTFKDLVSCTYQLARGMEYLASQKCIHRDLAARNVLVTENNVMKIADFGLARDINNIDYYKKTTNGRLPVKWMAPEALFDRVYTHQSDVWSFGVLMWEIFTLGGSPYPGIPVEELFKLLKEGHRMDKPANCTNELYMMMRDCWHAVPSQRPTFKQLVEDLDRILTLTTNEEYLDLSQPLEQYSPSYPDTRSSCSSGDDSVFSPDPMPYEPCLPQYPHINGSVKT
Chain of KDR (VEGFR2) (Homo sapiens, UniProt P35968) (P35968 20-1356, species assumed): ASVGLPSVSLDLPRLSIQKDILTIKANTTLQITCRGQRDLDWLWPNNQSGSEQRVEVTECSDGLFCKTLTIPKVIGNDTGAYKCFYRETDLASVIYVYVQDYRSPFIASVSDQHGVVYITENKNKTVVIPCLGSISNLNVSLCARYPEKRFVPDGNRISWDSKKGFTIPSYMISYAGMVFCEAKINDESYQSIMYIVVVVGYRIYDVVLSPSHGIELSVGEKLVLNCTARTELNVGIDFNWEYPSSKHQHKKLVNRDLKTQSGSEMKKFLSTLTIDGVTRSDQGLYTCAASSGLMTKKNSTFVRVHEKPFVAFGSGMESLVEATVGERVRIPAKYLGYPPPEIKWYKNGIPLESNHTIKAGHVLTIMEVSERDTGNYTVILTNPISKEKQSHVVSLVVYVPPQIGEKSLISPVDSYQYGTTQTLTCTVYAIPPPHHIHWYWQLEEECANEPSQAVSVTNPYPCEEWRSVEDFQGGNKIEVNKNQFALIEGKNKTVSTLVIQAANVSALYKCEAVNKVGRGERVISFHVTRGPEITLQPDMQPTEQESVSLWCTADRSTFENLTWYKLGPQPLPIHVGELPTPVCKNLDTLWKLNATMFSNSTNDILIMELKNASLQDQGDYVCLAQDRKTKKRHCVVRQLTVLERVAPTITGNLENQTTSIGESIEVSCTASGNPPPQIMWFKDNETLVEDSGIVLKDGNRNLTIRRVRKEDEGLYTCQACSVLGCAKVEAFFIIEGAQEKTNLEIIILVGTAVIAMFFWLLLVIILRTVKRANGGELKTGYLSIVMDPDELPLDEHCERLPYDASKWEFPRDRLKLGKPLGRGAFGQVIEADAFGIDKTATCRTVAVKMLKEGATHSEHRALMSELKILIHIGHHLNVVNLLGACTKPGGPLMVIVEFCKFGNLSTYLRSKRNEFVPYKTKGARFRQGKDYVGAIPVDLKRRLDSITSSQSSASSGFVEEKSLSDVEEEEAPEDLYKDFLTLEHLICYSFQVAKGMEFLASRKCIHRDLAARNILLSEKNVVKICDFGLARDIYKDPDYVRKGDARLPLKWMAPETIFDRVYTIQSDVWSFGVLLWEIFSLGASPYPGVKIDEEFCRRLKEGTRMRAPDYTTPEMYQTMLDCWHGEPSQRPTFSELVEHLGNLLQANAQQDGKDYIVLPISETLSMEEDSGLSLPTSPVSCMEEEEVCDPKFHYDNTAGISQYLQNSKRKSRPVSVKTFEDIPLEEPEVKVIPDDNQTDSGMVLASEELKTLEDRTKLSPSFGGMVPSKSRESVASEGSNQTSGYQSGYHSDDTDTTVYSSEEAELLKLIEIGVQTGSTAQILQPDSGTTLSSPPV
Chain of TEK (Tie2) (Q02763 23-1124): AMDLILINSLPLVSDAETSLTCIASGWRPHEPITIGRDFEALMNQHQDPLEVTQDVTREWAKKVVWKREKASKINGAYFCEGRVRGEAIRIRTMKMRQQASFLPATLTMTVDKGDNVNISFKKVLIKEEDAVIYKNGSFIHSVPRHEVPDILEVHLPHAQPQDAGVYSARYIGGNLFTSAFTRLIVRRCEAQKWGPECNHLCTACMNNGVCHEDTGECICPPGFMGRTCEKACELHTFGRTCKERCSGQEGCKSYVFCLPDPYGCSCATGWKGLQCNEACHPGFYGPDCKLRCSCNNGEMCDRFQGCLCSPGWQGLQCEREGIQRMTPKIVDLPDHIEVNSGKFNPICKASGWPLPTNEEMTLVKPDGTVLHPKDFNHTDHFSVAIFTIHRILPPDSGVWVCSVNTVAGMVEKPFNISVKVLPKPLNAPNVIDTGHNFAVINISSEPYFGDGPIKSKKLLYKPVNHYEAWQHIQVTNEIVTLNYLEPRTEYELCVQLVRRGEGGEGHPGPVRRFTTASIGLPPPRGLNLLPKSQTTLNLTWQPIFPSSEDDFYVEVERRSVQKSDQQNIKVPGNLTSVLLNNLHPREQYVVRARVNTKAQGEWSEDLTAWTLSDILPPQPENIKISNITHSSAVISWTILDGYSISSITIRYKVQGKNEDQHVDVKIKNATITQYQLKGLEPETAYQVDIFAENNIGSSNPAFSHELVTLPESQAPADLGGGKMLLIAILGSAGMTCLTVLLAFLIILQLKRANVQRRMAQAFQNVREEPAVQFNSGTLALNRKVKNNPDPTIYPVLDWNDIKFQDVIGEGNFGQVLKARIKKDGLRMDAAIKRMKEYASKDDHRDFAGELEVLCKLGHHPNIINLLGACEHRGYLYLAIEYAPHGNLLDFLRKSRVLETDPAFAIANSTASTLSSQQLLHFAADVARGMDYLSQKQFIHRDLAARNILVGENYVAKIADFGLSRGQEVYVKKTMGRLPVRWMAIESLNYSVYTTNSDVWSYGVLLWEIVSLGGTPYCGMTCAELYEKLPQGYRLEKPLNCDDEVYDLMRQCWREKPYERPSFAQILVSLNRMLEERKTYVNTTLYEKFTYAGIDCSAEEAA
Chain of AKT1 (PKB alpha) (P31749 whole entry): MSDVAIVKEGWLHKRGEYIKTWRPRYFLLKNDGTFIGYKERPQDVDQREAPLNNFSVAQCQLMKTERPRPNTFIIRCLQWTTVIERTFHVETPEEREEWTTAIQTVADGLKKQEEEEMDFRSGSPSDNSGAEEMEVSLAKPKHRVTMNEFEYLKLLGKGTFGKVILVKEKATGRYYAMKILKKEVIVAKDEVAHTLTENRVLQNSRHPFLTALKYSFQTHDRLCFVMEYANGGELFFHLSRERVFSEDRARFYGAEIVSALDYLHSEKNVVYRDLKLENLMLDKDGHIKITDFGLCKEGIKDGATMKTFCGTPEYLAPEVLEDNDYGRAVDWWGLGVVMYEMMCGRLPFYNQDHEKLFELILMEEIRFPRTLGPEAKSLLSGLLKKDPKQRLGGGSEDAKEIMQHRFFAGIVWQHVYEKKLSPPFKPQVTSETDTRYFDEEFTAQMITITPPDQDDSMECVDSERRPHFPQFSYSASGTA
Chain of NEK9 (Q8TD19 whole entry): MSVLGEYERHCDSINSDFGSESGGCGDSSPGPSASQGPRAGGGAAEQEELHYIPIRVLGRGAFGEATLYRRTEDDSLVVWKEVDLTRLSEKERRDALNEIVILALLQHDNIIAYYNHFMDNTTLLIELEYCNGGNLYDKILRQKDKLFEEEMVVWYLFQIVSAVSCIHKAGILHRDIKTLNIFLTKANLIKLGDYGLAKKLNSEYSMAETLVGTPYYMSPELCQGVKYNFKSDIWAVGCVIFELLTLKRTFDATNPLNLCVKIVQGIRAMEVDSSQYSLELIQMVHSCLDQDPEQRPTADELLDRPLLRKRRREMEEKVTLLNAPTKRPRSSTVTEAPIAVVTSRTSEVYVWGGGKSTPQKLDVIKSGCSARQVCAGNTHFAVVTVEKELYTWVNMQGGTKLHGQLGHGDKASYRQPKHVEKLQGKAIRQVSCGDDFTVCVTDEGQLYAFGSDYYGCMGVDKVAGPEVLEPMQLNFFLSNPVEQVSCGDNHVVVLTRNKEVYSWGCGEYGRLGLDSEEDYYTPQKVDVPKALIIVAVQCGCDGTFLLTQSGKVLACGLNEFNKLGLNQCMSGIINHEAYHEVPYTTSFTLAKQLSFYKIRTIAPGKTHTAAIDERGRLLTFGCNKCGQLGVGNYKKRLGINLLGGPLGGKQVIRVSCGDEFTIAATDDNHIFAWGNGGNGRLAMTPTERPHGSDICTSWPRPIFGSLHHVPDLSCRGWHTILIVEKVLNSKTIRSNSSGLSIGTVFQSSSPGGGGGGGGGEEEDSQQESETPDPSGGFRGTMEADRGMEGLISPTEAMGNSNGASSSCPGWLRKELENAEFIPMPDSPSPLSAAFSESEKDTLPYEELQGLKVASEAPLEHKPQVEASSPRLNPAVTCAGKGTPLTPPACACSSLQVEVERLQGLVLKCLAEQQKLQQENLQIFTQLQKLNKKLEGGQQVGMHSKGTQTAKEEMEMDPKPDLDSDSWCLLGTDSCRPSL
Chain of PIM1 (P11309 whole entry): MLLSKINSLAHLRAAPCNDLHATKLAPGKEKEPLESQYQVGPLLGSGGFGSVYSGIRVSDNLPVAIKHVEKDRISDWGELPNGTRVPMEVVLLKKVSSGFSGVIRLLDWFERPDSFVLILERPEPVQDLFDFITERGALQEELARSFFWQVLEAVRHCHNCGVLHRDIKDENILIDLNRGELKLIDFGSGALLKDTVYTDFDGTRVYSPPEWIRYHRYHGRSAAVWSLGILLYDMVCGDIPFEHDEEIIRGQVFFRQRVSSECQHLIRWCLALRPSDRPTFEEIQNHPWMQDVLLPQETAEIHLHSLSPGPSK

## C#CCOc1ccc(Nc2ncc(Cl)c(Nc3ccccc3NC(=O)C=C)n2)c(OC)c1 [Compound 6]
TEK (Tie2); [3]
  Inhibition at 1 µM (%): 4% and 10%
TEK (Tie2); [4]
  inhibition at 1 µM: 7%
FGFR2; [4]
  inhibition at 1 µM: 7%
FGFR2
  Inhibition at 1 µM (%): 11%
FGFR2; listed as WEL028, 1 µM
  Inhibition at 1 µM (%): 4%
PTK2 (FAK)
  IC50: 0.398 µM
PTK2 (FAK); [3]
  Inhibition at 1 µM (%): 79%
PTK2 (FAK); [5]
  inhibition at 10 µM: 90%
PTK2 (FAK); [6]
  inhibition at 3.31 µM: 88%
PTK2 (FAK); [7]
  inhibition at 1.12 µM: 78%
PTK2 (FAK); [8]
  inhibition at 0.372 µM: 46%
PTK2 (FAK); [9]
  inhibition at 0.123 µM: 26%
PTK2 (FAK); 1 h, log[inhibitor] (M) -7.86, ZLYTE, ATP Km app
  inhibition at 0.0138 µM: 4%
PTK2 (FAK); [10]
  inhibition at 0.00151 µM: 4%
PTK2 (FAK); IC50 on that kinase divided by IC50 on FES^S700C
  Apparent fold selectivity: 89 fold
PTK2 (FAK); read-out: Inhibition at 1 µM (%), 1 µM, ZLYTE, ATP Km app
  inhibition at 1 µM: 77%
NEK9; [4]
  inhibition at 1 µM: -8%
NEK9; NEK9, 1 µM, ZLYTE, ATP Km app, listed as WEL028, 1 µM
  Inhibition at 1 µM (%): -7% and -9%
LTK (TYK1); [4]
  inhibition at 1 µM: 43%
LTK (TYK1); LTK (TYK1), 1 µM, ZLYTE, ATP Km app, listed as WEL028, 1 µM
  Inhibition at 1 µM (%): 37%
LTK (TYK1); read-out: Inhibition at 1 µM (%), LTK (TYK1), 1 µM, ZLYTE, ATP Km app
  inhibition at 1 µM: 48%
KDR (VEGFR2) [1]
  IC50: 0.631 µM
KDR (VEGFR2) [1]; [4]
  inhibition at 1 µM: 67%
KDR (VEGFR2) [1]; [5]
  inhibition at 10 µM: 101%
KDR (VEGFR2) [1]; [6]
  inhibition at 3.31 µM: 99%
KDR (VEGFR2) [1]; [7]
  inhibition at 1.12 µM: 70%
KDR (VEGFR2) [1]; [8]
  inhibition at 0.372 µM: 37%
KDR (VEGFR2) [1]; [9]
  inhibition at 0.123 µM: 26%
KDR (VEGFR2) [1]; 1 h, log[inhibitor] (M) -7.39, ZLYTE, ATP Km app
  inhibition at 0.04074 µM: 16%
KDR (VEGFR2) [1]; [10]
  inhibition at 0.00151 µM: 17%
KDR (VEGFR2) [1]; 1 h, log[inhibitor] (M) -9.31, ZLYTE, ATP Km app
  inhibition at 0.00049 µM: 17%
KDR (VEGFR2) [1]; KDR (VEGFR2), 1 µM, ZLYTE, ATP Km app, listed as WEL028, 1 µM
  Inhibition at 1 µM (%): 65%
KDR (VEGFR2) [1]; read-out: Inhibition at 1 µM (%), KDR (VEGFR2), 1 µM, ZLYTE, ATP Km app
  inhibition at 1 µM: 69%
KDR (VEGFR2) [2]
  Apparent fold selectivity: 153 fold
AKT1 (PKB alpha); [4]
  inhibition at 1 µM: -3%
AKT1 (PKB alpha)
  Inhibition at 1 µM (%): -2%
AKT1 (PKB alpha); listed as WEL028, 1 µM
  Inhibition at 1 µM (%): -4%
MAP4K3 (GLK); 1 μM WEL028, 1 h preincubation
  Inhibition (%): 3%
MAP4K3 (GLK); MAP4K3 (GLK), 1 µM, LanthaScreen Binding, listed as WEL028, 1 µM
  Inhibition at 1 µM (%): 2%
MAP4K3 (GLK); read-out: Inhibition at 1 µM (%), MAP4K3 (GLK), 1 µM, LanthaScreen Binding
  inhibition at 1 µM: 4%
PIM1; [4]
  inhibition at 1 µM: -8%
PIM1
  Inhibition at 1 µM (%): -11%
PIM1; listed as WEL028, 1 µM
  Inhibition at 1 µM (%): -5%
CSNK2A2 (CK2 alpha 2); 1 h
  inhibition at 1 µM: 6%
CSNK2A2 (CK2 alpha 2); read-out: Inhibition at 1 µM (%)
  inhibition at 1 µM: 6%
PAK6
  inhibition at 1 µM: -7%
IKBKE (IKK epsilon)
  inhibition at 1 µM: 2%
STK22D (TSSK1)
  inhibition at 1 µM: 19%

Source: paper PMC7316778 (Nature Communications, 2020)
